The results in this text go back to ChEMBL document CHEMBL4382202, “1-(2-Hydroxybenzoyl)-thiosemicarbazides are promising antimicrobial agents targeting d-alanine-d-alanine ligase in bacterio” (Eur J Med Chem, 2018).

Activity calls are given as the source filed them. The rule behind the calls is not given here.

Experiment [1] concerns the target Arginase-1 (Homo sapiens) (UniProt P05089). Description: Inhibition of human recombinant Arg1 at 10 uM using L-arginine as substrate after 5 mins in presence of [guanidino-14C]-L-arginine by liquid scintillation counting analysis relative to control.
The subject of a further experiment is Bacillus cereus. Description: Inhibition of Bacillus cereus beta-lactamase at 10 uM using nitrocefin as substrate preincubated for 15 mins followed by substrate addition and measured after 60 mins by spectrophotometric analysis relative to control.
Experiment [2] addresses DNA gyrase (Staphylococcus aureus) (UniProt P0A0K8+P20831). Description: Inhibition of Staphylococcus aureus DNA gyrase at 10 uM using supercoiled pBR322 DNA as substrate after 1 hr by ethidium bromide staining-based agarose gel electrophoresis relative to control. It counts as protein-complex assay.
The target of experiment [3] is L-lactate dehydrogenase A chain (Homo sapiens) (UniProt P00338). Description: Inhibition of human recombinant full-length LDHA at 10 uM using sodium pyruvate as substrate after 60 mins by resazurin dye-based assay relative to control. In general terms: The colour change of resazurin is a common sign of viable cells or microbes.
For experiment [4], the target named is Secretory phospholipase A2 (Homo sapiens) (UniProt Q5R387+Q9NZK7+P14555+Q9BZM2+Q9UNK4+P39877+O15496+P04054+Q9NZ20+Q9BZM1+Q9BX93). Description: Inhibition of human sPLA2 at 10 uM relative to control. It counts as protein assay.
For experiment [5], the target named is Peroxisome proliferator-activated receptor alpha (Homo sapiens) (UniProt Q07869). In words: Displacement of [3H]WY 14643 from human recombinant PPARalpha receptor at 10 uM at 10 uM after 120 mins by scintillation counting analysis relative to control.
Experiment [6] addresses Topoisomerase IV (Staphylococcus aureus) (UniProt P0C1U9+P0C1S7). In words: Inhibition of Staphylococcus aureus DNA topoisomerase 4 at 10 uM using interlinked kDNA as substrate after 1 hr by ethidium bromide staining-based agarose gel electrophoresis relative to control. The class given is protein-complex assay.
In a further experiment the test system is Escherichia coli. In words: Inhibition of Escherichia coli DNA topoisomerase 4 at 10 uM using interlinked kDNA as substrate after 1 hr by ethidium bromide staining-based agarose gel electrophoresis relative to control.
In the next experiment the test system is Klebsiella pneumoniae. Description: Antibacterial activity against Klebsiella pneumoniae ATCC 700603 after 18 to 24 hrs by microdilution assay. The class given is functional, organism-based. Background: In broth dilution the organism is exposed to a series of concentrations in liquid medium.

Arginase-1 (Homo sapiens), sequence (P05089 whole entry): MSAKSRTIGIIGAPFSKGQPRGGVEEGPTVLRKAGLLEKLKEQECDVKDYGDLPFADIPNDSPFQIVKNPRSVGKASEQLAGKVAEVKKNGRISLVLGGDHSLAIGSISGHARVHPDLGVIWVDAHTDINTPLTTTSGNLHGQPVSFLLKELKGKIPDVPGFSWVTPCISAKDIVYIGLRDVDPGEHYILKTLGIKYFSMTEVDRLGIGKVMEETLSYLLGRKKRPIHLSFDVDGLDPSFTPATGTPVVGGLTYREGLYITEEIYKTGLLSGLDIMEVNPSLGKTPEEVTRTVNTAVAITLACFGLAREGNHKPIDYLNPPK
Peroxisome proliferator-activated receptor alpha (Homo sapiens), sequence (Q07869 whole entry): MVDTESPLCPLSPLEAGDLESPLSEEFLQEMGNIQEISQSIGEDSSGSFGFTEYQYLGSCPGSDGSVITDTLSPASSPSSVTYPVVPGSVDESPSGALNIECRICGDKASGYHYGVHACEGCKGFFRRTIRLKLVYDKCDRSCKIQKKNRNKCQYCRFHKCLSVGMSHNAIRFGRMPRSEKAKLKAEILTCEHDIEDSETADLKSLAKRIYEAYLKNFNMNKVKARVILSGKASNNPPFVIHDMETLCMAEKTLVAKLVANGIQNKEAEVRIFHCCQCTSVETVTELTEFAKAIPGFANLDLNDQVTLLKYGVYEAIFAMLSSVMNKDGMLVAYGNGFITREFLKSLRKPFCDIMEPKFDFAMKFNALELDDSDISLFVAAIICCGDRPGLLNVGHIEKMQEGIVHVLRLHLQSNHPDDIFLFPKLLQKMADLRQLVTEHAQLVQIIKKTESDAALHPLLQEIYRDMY
DNA gyrase (Staphylococcus aureus), sequence (P0A0K8 2-644 limits assumed): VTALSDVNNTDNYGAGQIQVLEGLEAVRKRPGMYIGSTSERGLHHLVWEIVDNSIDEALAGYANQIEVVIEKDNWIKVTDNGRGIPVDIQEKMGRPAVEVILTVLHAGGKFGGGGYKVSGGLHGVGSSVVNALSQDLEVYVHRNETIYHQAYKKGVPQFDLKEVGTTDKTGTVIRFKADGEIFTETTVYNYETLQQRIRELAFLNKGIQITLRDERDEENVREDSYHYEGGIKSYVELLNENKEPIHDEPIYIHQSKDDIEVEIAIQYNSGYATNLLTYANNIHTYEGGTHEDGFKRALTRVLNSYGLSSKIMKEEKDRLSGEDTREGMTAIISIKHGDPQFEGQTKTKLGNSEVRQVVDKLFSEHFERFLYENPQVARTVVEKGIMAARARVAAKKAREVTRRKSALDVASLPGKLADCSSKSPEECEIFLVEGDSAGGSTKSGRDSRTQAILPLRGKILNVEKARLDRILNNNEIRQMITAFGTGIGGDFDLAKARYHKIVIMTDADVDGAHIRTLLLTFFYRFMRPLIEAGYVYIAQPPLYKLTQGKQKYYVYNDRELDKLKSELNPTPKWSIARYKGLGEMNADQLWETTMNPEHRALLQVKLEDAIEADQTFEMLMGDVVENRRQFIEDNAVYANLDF
DNA gyrase (Staphylococcus aureus), sequence (P20831 whole entry partner): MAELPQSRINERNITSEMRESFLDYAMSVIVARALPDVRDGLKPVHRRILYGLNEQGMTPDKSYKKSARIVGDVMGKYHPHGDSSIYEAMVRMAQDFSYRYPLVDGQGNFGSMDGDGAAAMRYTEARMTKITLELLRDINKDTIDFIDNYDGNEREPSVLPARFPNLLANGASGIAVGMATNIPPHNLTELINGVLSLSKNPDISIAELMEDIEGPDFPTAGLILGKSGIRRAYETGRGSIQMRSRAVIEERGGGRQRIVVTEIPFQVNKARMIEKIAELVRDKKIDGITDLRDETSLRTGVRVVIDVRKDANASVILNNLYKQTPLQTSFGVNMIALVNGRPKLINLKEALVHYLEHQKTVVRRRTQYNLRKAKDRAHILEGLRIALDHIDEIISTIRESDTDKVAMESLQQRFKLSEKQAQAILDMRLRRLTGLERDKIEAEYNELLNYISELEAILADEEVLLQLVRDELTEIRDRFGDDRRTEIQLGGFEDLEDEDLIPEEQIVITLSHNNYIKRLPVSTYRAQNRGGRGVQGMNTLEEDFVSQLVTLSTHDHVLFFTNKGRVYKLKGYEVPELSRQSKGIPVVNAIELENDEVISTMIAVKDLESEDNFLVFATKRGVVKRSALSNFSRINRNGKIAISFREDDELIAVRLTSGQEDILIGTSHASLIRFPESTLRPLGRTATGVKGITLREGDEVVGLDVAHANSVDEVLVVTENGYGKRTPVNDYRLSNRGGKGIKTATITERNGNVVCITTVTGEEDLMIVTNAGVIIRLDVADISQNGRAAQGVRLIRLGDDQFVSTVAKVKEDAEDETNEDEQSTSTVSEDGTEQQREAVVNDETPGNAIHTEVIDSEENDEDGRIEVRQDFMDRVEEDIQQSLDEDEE

As usually defined, the inhibition is the share of the control response that was lost under treatment. As to `O=C(NNC(=S)Nc1ccc(Cl)c(Cl)c1)c1ccccc1O`, the inhibition (in experiment [1]; with Bacillus cereus; in experiment [2]; in experiment [3]; in [4]; in experiment [5]) was < 30% in each case. Further, the inhibition (in [6]; with Escherichia coli) was < 30% throughout. For the same molecule, the MIC result in the experiment with Klebsiella pneumoniae is “inactive”.
